In brackets after ≈: the same amount, converted by molar mass. Like-named read-outs stand apart in the source and are kept apart here. Marks after values point to notes of the source that are not given here.
Assays:
[1] = tested on: Staphylococcus aureus BHI; experiment: MIC, microdilution in culture medium, S. aureus; assay type: cell-based; details: 20 h, 37 °C, average of at least three experiments; for MIC: Staphylococcus aureus, read-out: MIC, Bacteria, S. aureus BHI
From the text: The microorganisms used for the susceptibility tests were the bacteria Escherichia coli JM101 and Staphylococcus aureus BHI, and the yeast Saccharomyces cerevisiae strains BY4741 (MAT a his3Δ1 leu2Δ0 met15Δ0 ura3Δ0 (EUROSCARF)) carrying YEplac195 (from EUROSCARF) or YEPlac195-PDR5 (provided by Ayse Banu Demir, Izmir University of Economics, Turkey) plasmids.
Bacterial strains were usually maintained and grown in an LB medium (0.5% (w/v) yeast extract, 1% (w/v) bactotryptone, and 1% (w/v) NaCl) at 37 °C. For MIC (minimal inhibitory concentration) and MMC (minimal microbicidal concentration) assays, and for the determination of synergies, overnight growth was carried out in 2% (w/v) bactopeptone (BP), and then the cultures were diluted and incubated for several hours in 2% (w/v) BP for ensuring logarithmic growth. Yeast strains were grown in an SC-ura medium (0.17% (w/v) yeast nitrogen base without amino acids and ammonium sulphate, 0.2% (w/v) drop-out without uracil, 0.5% (w/v) (NH4)2SO4, and 2% (w/v) glucose) at 30 °C. Liquid cultures were incubated with shaking (200 rpm). Solid media also contained 2% (w/v) agar.
For the analysis of the antimicrobial activity, the strategies and indications of Cushnie et al. were considered. The standardised method of microdilution in a culture medium was followed to determine the MIC [55]. In bacterial strains, serial dilutions of the compounds to be tested and the control antibiotics were prepared in phosphate buffer (20 mM, pH 7.4, 0.5 mL) and were mixed with a suspension of bacterial cells in a logarithmic growth phase (in 1% BP, 0.5 mL). The final OD600 of the whole solutions were 0.004 and 0.008 for E. coli and S. aureus cultures, respectively. After 20 h of incubation at 37 °C with shaking, the MIC was determined as the lowest concentration of each compound in which no visible bacterial growth was observed.

[2] = tested on: Yeast (S. cerevisiae strains); experiment: MIC, yeast (strain not specified); assay type: cell-based, Saccharomyces cerevisiae; details: for MIC: Saccharomyces cerevisiae, read-out: MIC Yeast
Protocol: The determination of the MIC for yeast strains was carried out following a similar procedure to that of the polyamines and antifungal reference agents: Serial dilutions of each one in phosphate buffer (20 mM, pH 7.4, 0.5 mL) were prepared and mixed with a suspension of yeast cells (OD600 0.04 in SC-ura 2X (VWR, Atlanta, GA, USA), 0.5 mL). […] Experiments were carried out at least three times in all cases.

E. coli JM101 = experiment: Minimal bactericidal concentration, E. coli; assay type: cell-based, Escherichia coli; details: overnight incubation, plating on LB, bacteriostatic if growth at 4 times the MIC; for MBC: Escherichia coli, JM101
Protocol: Once the MIC was known, the samples were prepared as described in the previous section with polyamine concentrations corresponding to the MIC and half, double, and four times its value. After overnight incubation with the microorganisms, 30 μL of a ten-fold dilution of each one was spread in LB (in the case of bacterial strains) or SC-ura (for yeast strains) plates. They were incubated for 20 h at 37 °C (bacteria) or 48 h at 30 °C (yeasts), and the level of growth was determined. […] Experiments were carried out at least three times.

BY4741/YEplac195 = experiment: Checkerboard titration synergy, BY4741/YEplac195; assay type: cell-based, Saccharomyces cerevisiae; details: synergistic when FICI ≤0.5
Protocol: (§1) The combined antimicrobial activity of the test compounds with the antibacterial or antifungal control agents was performed under the same conditions used for the MIC determination and following the procedures described by Carton Herrán, Reis de Sá et al. and Zharkova et al.. For each experiment, 16 samples (4 rows × 4 columns) in a total volume of 0.5 mL were prepared in tubes using an array of combinations between the MIC value and 0 μg/mL of the compound to be tested in each row, and between the MIC value and 0 μg/mL of the reference drug in each column. In this way, a variety of mixtures with different concentrations of them alone or in combination was obtained. Briefly, 0.5 mL of a microorganism culture was added to each one of the samples, and after incubation for 24 h with shaking at the appropriate temperature (37 °C or 30 °C), the tubs were visually inspected, and the OD600 was measured. From this information, the fractional inhibitory concentration index (FICI) was calculated according to the formula FIC index = ([A]/[CMI A]) + ([B]/[CMI B]), where [A] and [B] are respective concentrations of tested polyamine and reference drug in their combination effectively inhibiting the growth of bacteria or yeast, and [MIC A] and [MIC B] are the individual MICs of the tested polyamine and reference drug when they are used alone. An interaction is considered synergistic when the FICI value is ≤0.5 [41, 42].
(§2) To confirm the data obtained in the checkerboard assay, 30 μL of a ten-fold dilution of the tubes containing concentrations of half of the MIC of each one of the compounds alone (polyamine to be tested and reference drug) and one fourth of the MIC of each one in combination were also spread in LB or SC-ura plates (according to the microorganism considered in each case) and incubated at 37 °C or 30 °C. The visualisation of these plates was performed after 24 or 48 h, respectively. All these experiments were carried out in triplicate.

BY4741/PDR5 = experiment: Checkerboard titration synergy, BY4741/PDR5; assay type: cell-based, Saccharomyces cerevisiae; details: synergistic when FICI ≤0.5
Protocol: as §1, §2

E. coli [3] = experiment: Lytic activity, time-kill (OD600), E. coli; assay type: cell-based, Escherichia coli; details: 5 times the MIC
Protocol: To determine if the compounds showing microbicidal activity induce cell lysis, the procedure described by Fleeman et al. was followed, with the modifications indicated below. The E. coli and S. aureus strains were grown as in the experiments described earlier. The cells corresponding to 1.5 units of OD600 were collected and resuspended in 1% BP after washing in the same medium. They were incubated in a final volume of 1 mL with concentrations 5 times higher than the MIC of the analysed compounds, and OD600 was monitored over time. Other antimicrobial compounds were also used in this study as controls. The experiments were performed in triplicate.

E. coli [4] = experiment: Checkerboard titration synergy, E. coli; assay type: cell-based, Escherichia coli; details: synergistic when FICI ≤0.5
Protocol: as §1, §2

[5] = design: method as in PMID 37335019; details: 298 K, 0.15 mol/dm NaCl; error in last figure in parentheses; cited from earlier work
[6] = yeast strain not specified (Tables 5 and 10)

| Compound | Minimal bactericidal concentration (MBC), E. coli JM101 (E. coli JM101) | Synergy with Amphotericin B (BY4741/YEplac195) | Synergy with Cycloheximide (BY4741/YEplac195) | Synergy with Fluconazole (BY4741/YEplac195) | Synergy with Amphotericin B (BY4741/PDR5) | Synergy with Cycloheximide (BY4741/PDR5) | MIC [1] | MIC [2, 6] | MBC (E. coli JM101) | Lytic activity (OD600 over time) (E. coli [3]) | Synergy with Ampicillin (E. coli [4]) | Synergy with Ciprofloxacin (E. coli [4]) | Synergy with Doxycycline (E. coli [4]) | Synergy with Gentamicin (E. coli [4]) | Stepwise protonation constant (log K), H2L + H ⇄ H3L [5] | Stepwise protonation constant (log K), H3L + H ⇄ H4L [5] | Stepwise protonation constant (log K), L + H ⇄ HL [5] | Stepwise protonation constant (log K), LH + H ⇄ H2L [5] | further results |
| --- | --- | --- | --- | --- | --- | --- | --- | --- | --- | --- | --- | --- | --- | --- | --- | --- | --- | --- | --- |
| N^1-(benzo[d][1,3]dioxol-5-ylmethyl)-N^3-(2-((2-((3-((benzo[d][1,3]dioxol-5-ylmethyl)amino)propyl)amino)ethyl)(2-((3-(((2,3-dihydrobenzofuran-6-yl)methyl)amino)propyl)amino)ethyl)amino)ethyl)propane-1,3-diamine [Compound 4a] | 10 ^a µg/mL | positive results and + | Sinergy and positive results and + | Sinergy and synergic and + | positive results and + | positive results and + |  |  |  |  |  |  |  |  |  |  |  |  | MIC, Bacteria, S. aureus BHI [1]: 4 µg/mL; MIC Yeast [2, 6]: 150 µg/mL |
| c1cc2nc(c1)CNCCN(CCNCc1ccc3c(c1)OCO3)CCNC2 [Compound 5a, 2-(3,6,9-triaza-1(2,6)-pyridinacyclodecaphane-6-yl)-N-(benzo[d][1,3]dioxol-5-ylmethyl)ethan-1-amine] |  | positive results and + | Sinergy and positive results and + | Sinergy and synergic and + | positive results and + | positive results and + | 35 µg/mL | 60 µg/mL (≈ 156 µM) | 10 µg/mL (≈ 26.1 µM) | do not have a lytic effect |  |  |  |  |  |  |  |  |  |
| c1cc2nc(c1)CNCCN(CCNCc1ccc3c(c1)CCO3)CCNC2 [Compound 8a, 2-(3,6,9-triaza-1(2,6)-pyridinacyclodecaphane-6-yl)-N-((2,3-dihydrobenzofuran-5-yl)methyl)ethan-1-amine] |  |  |  |  |  |  | 100 µg/mL | 400 µg/mL (≈ 1050 µM) | 60 µg/mL (≈ 157 µM) |  | positive results and + | - | positive results and + | positive results and + |  |  |  |  |  |
| Oc1ccc(CNCCN2CCNCc3cccc(n3)CNCC2)cc1 [Compound 7a] | Bacteriostatic |  |  |  |  |  | 135 µg/mL |  |  |  | - | - | - | positive results and + | 8.516 (8) | 7.341 (9) | 10.153 (9) | 9.473 (9) | MIC [2]: 295 µg/mL (≈ 830 µM) |
| Oc1ccccc1CNCCN1CCNCc2cccc(n2)CNCC1 [Compound 6a] |  | positive results and + | positive results and + | - | positive results and + | positive results and + | 40 µg/mL | 45 µg/mL (≈ 127 µM) | 10 µg/mL (≈ 28.1 µM) | do not have a lytic effect | no synergy and - | no synergy and - | no synergy and - | no synergy and - | 7.92 (1) | 6.67 (2) | 9.93 (1) | 9.11 (1) |  |
